From article PMC10902181 (Journal of neurochemistry, 2023)
pIC50: −log10 of the molar value. Where two headings read alike, the source gives them in different places. Marks after values point to notes of the source that are not given here.

Experiments:
GluN1/GluN2B-N615K = GluN1/GluN2B-N615K (Homo sapiens, UniProt Q05586+Q13224, N615K); experiment: TEVC current recordings from Xenopus oocytes, channel blocker inhibition; assay type: cell-based; conditions: for % inhibition: 100 μM blocker, −40 mV
[1] = biological target: GluN2B-N616K-containing NMDARs (Homo sapiens, UniProt Q05586+Q13224, N616K); experiment: as above; assay type: cell-based; conditions: for % inhibition: 2B-N616K, 100 μM blocker, −40 mV; for pIC50: IC50, 2B-N616K, holding −40 mV
WT GluN1/GluN2B = WT GluN1/GluN2B (Homo sapiens, UniProt Q05586+Q13224); experiment: as above; assay type: cell-based; conditions: for pIC50: IC50, WT GluN1/WT 2B, holding −40 mV; for % inhibition: WT GluN1/WT 2B, 100 μM blocker, −40 mV
GluN1-G620R/GluN2A = GluN1-G620R/GluN2A (Homo sapiens, UniProt Q05586+Q12879, G620R); experiment: as above; assay type: cell-based; conditions: for % inhibition: 1-G620R/2A, 100 μM blocker, −40 mV; for pIC50: IC50, 1-G620R/2A, holding −40 mV
[2] = biological target: GluN2A-N615K-containing NMDARs (Homo sapiens, UniProt Q05586+Q12879, N615K); experiment: as above; assay type: cell-based; conditions: for % inhibition: 2A-N615K, 100 μM blocker, −40 mV; for pIC50: IC50, 2A-N615K, holding −40 mV
[3] = biological target: GluN2B-G611V-containing NMDARs (Homo sapiens, UniProt Q05586+Q13224, G611V); experiment: as above; assay type: cell-based; conditions: for % inhibition: 2B-G611V, 100 μM blocker, −40 mV; for pIC50: IC50, 2B-G611V, holding −40 mV
[4] = biological target: GluN2B-V620M-containing NMDARs (Homo sapiens, UniProt Q05586+Q13224, V620M); experiment: as above; assay type: cell-based; conditions: for % inhibition: 2B-V620M, 100 μM blocker, −40 mV; for pIC50: IC50, 2B-V620M, holding −40 mV
GluN1/GluN2A-L611Q [5] = biological target: T1, GluN1/GluN2A-L611Q (Homo sapiens, UniProt Q05586+Q12879, L611Q); experiment: Current-voltage curves; conditions: 2A-L611Q
[6] = biological target: GluN2B-W607C-containing NMDARs (Homo sapiens, UniProt Q05586+Q13224, W607C); experiment: TEVC current recordings from Xenopus oocytes, channel blocker inhibition; assay type: cell-based; conditions: for % inhibition: 2B-W607C, 100 μM blocker, −40 mV; for pIC50: IC50, 2B-W607C, holding −40 mV
GluN1/GluN2B-N615I = GluN1/GluN2B-N615I (Homo sapiens, UniProt Q05586+Q13224, N615I); experiment: as above; assay type: cell-based; conditions: for % inhibition: 2B-N615I, 100 μM blocker, −40 mV; for pIC50: IC50, 2B-N615I, holding −40 mV
[7] = biological target: GluN2A-N614S-containing NMDARs (Homo sapiens, UniProt Q05586+Q12879, N614S); experiment: as above; assay type: cell-based; conditions: for % inhibition: 2A-N614S, 100 μM blocker, −40 mV; for pIC50: IC50, 2A-N614S, holding −40 mV
WT GluN1/GluN2A = WT GluN1/GluN2A (Homo sapiens, UniProt Q05586+Q12879); experiment: as above; assay type: cell-based; conditions: for pIC50: IC50, WT GluN1/WT 2A, holding −40 mV; for % inhibition: WT GluN1/WT 2A, 100 μM blocker, −40 mV
[8] = biological target: GluN2B-V618G-containing NMDARs (Homo sapiens, UniProt Q05586+Q13224, V618G); experiment: as above; assay type: cell-based; conditions: for % inhibition: 2B-V618G, 100 μM blocker, −40 mV; for pIC50: IC50, 2B-V618G, holding −40 mV
GluN1/GluN2A-L611Q [9] = biological target: T1, GluN1/GluN2A-L611Q; experiment: as above; assay type: cell-based; conditions: for % inhibition: 2A-L611Q, 100 μM blocker, −40 mV; for pIC50: IC50, 2A-L611Q, holding −40 mV

CNC1(c2ccccc2Cl)CCCCC1=O (stereo not shown) [ketamine]
pIC50 (GluN1/GluN2B-N615K): < 4.00 | % inhibition (GluN1/GluN2B-N615K; 2B-N615K, w/ 1 mM Mg^2+): 6.5 ± 1.5% (16) ^*^¥ | % inhibition (GluN1/GluN2B-N615K; 2B-N615K, w/o Mg^2+): 22 ± 3.8 (15)^¥ % | pIC50 (GluN1/GluN2B-N615K; 2B-N615K, w/ 1 mM Mg^2+, holding −40 mV): < 4.00 | reduced potency compared to the WT receptors (GluN1/GluN2B-N615K; GluN2B-N615K, presence of 1 mM Mg^2+): over 5.9 fold | % inhibition ([1]; w/ 1 mM Mg^2+): 93 ± 1.3% (13)^¥ | % inhibition ([1]; w/o Mg^2+): 91 ± 2.7% (8) | enhanced potency in comparison to WT NMDARs ([1]; GluN2B-N616K, absence of Mg^2+): 1.8 fold | pIC50 ([1]; w/ 1 mM Mg^2+): 5.60 | pIC50 ([1]; w/o Mg^2+): 5.64 | pIC50 (WT GluN1/GluN2B; w/ 1 mM Mg^2+): 4.85 | pIC50 (WT GluN1/GluN2B; w/o Mg^2+): 5.38 | % inhibition (WT GluN1/GluN2B; w/ 1 mM Mg^2+): 86 ± 1.0% (12) | % inhibition (WT GluN1/GluN2B; w/o Mg^2+): 95 ± 1.0% (13) | % inhibition (GluN1-G620R/GluN2A; w/ 1 mM Mg^2+): 97 ± 0.6 (7)^¥ % | % inhibition (GluN1-G620R/GluN2A; w/o Mg^2+): 95 ± 1.8 (12) % | increased potency in 1 mM Mg^2+ compared to the same variant in the absence of Mg^2+ (GluN1-G620R/GluN2A; GluN1-G620R): 2.5 fold | enhanced potency in comparison to WT NMDARs (GluN1-G620R/GluN2A; GluN1-G620R, absence of Mg^2+): 2.2 fold | pIC50 (GluN1-G620R/GluN2A; w/ 1 mM Mg^2+): 6.00 | pIC50 (GluN1-G620R/GluN2A; w/o Mg^2+): 5.60 | % inhibition ([2]; w/ 1 mM Mg^2+): 92 ± 3.3% (7)^¥ | % inhibition ([2]; w/o Mg^2+): 93 ± 1.5% (18) | pIC50 ([2]; w/ 1 mM Mg^2+): 5.80 | pIC50 ([2]; w/o Mg^2+): 5.37 | increased potency in 1 mM Mg^2+ compared to the same variant in the absence of Mg^2+ ([2]; printed GluN2A-N616K): 2.7 fold | % inhibition ([3]; w/ 1 mM Mg^2+): 88 ± 1.6% (16) | % inhibition ([3]; w/o Mg^2+): 92 ± 2.6% (7) | reduced potency in 1 mM Mg^2+ vs absence of Mg^2+ ([3]; GluN2B-G611V): 2.6 fold | pIC50 ([3]; w/ 1 mM Mg^2+): 5.10 | pIC50 ([3]; w/o Mg^2+): 5.51 | % inhibition ([4]; w/ 1 mM Mg^2+): 91 ± 2.8% (8) | % inhibition ([4]; w/o Mg^2+): 93 ± 1.0% (10) | reduced potency in 1 mM Mg^2+ vs absence of Mg^2+ ([4]; GluN2B-V620M): 2.1 fold | pIC50 ([4]; w/ 1 mM Mg^2+): 5.15 | pIC50 ([4]; w/o Mg^2+): 5.47 | z δ (apparent, combined block) (GluN1/GluN2A-L611Q [5]; 1 mM Mg^2+ + 0.3 μM ketamine): 1.14 | z δ (apparent, combined block) (GluN1/GluN2A-L611Q [5]; 1 mM Mg^2+ + 1.0 μM ketamine): 1.02 | z δ (apparent, combined block) (GluN1/GluN2A-L611Q [5]; 1 mM Mg^2+ + 3.0 μM ketamine): 1.01 | z δ (apparent, combined block) (GluN1/GluN2A-L611Q [5]; 1 mM Mg^2+ + 10 μM ketamine): 0.84 | z δ (apparent, combined block) (GluN1/GluN2A-L611Q [5]; 1 mM Mg^2+ + 30 μM ketamine, zδ was fixed to 0.80 for this condition): 0.80 ^* | z δ (apparent, combined block) (GluN1/GluN2A-L611Q [5]; 1 mM Mg^2+ + 100 μM ketamine): 0.80 | % inhibition ([6]; w/ 1 mM Mg^2+): 89 ± 2.8% (9) | % inhibition ([6]; w/o Mg^2+): 80 ± 3.6% (12)^¥ | reduced potency (less potent) vs WT ([6]; GluN2B-W607C, absence of Mg^2+): ~ 3 fold | pIC50 ([6]; w/ 1 mM Mg^2+): 4.96 | pIC50 ([6]; w/o Mg^2+): 4.80 | % inhibition (GluN1/GluN2B-N615I; w/ 1 mM Mg^2+): 94 ± 1.8% (8)^¥ | % inhibition (GluN1/GluN2B-N615I; w/o Mg^2+): 89 ± 1.9 (10) % | enhanced potency in comparison to WT NMDARs (GluN1/GluN2B-N615I; GluN2B-N615I, absence of Mg^2+): 8.1 fold | pIC50 (GluN1/GluN2B-N615I; w/ 1 mM Mg^2+): 6.12 | pIC50 (GluN1/GluN2B-N615I; w/o Mg^2+): 6.29 | % inhibition ([7]; w/ 1 mM Mg^2+): 77 ± 4.1% (9) | % inhibition ([7]; w/o Mg^2+): 78 ± 3.0% (12)^¥ | reduced potency (less potent) vs WT ([7]; GluN2A-N614S, absence of Mg^2+): ~ 3 fold | pIC50 ([7]; w/ 1 mM Mg^2+): 4.51 | pIC50 ([7]; w/o Mg^2+): 4.54 | pIC50 (WT GluN1/GluN2A; w/ 1 mM Mg^2+): 4.77 | pIC50 (WT GluN1/GluN2A; w/o Mg^2+): 5.26 | % inhibition (WT GluN1/GluN2A; w/ 1 mM Mg^2+): 79 ± 2.4% (24) | % inhibition (WT GluN1/GluN2A; w/o Mg^2+): 92 ± 1.1% (25) | % inhibition ([8]; w/ 1 mM Mg^2+): 81 ± 2.1% (8) | % inhibition ([8]; w/o Mg^2+): 77 ± 3.0% (8)^¥ | reduced potency (less potent) vs WT ([8]; GluN2B-V618G, absence of Mg^2+): ~ 3 fold | pIC50 ([8]; w/ 1 mM Mg^2+): 4.62 | pIC50 ([8]; w/o Mg^2+): 4.74 | % inhibition (GluN1/GluN2A-L611Q [9]; w/ 1 mM Mg^2+): 93 ± 2.1% (10) ^*^¥ | % inhibition (GluN1/GluN2A-L611Q [9]; w/o Mg^2+): 87 ± 1.5% (17) | increased potency in 1 mM Mg^2+ compared to the same variant in the absence of Mg^2+ (GluN1/GluN2A-L611Q [9]; GluN2A-L611Q): 1.8 fold | pIC50 (GluN1/GluN2A-L611Q [9]; w/ 1 mM Mg^2+): 5.40 | pIC50 (GluN1/GluN2A-L611Q [9]; w/o Mg^2+): 5.14
